Values after ≈ are worked out from the molar mass of the structure shown.
Key:
Assay in all cases: in vitro antibacterial evaluation, MIC by broth dilution
Format in all cases: cell-based
[1] = system: Staphylococcus sp.; settings: broth dilution, 18 hours at 35° C.
Summary of the method: (§1)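 Read-out: the lowest concentration at which the test strain fails to grow. Serial dilutions (64-0.06 μg/mL) in Muller-Hinton II […], 5×10^5 CFU/mL inoculum, NCCLS M7-A2 procedure.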

[2] = system: Enterococcus sp.; settings: broth dilution, 18 hours at 35° C.
Summary of the method: as §1

[3] = system: Streptococcus sp.; settings: broth dilution, 18 hours at 35° C.
Summary of the method: as §1

[4] = system: Escherichia coli; settings: 18 hours at 35° C.

CC(c1ccccc1)C1NC(=O)CNC(=O)C(CO)NC(=O)C(C(O)C2CNC(=N)N2C2OC(CO)C(O)C(O)C2O)NC(=O)C(C(O)C2CNC(=N)N2)NC(=O)C(Cc2ccc(OC3OC(CO)C(OC4OC5COC6(CCC(C(C)(C)C)CC6)OC5C(O)C4O)C(O)C3O)cc2)NC1=O (stereo not shown) [Example 208]
MIC Staphylococcus aureus (ATCC 29213) ([1]; strain ATCC 29213): 4 mg/L (≈ 2.79 µM) | MIC Staphylococcus aureus (GC 1131) ([1]; strain GC 1131): 8 mg/L (≈ 5.59 µM) | MIC Staphylococcus aureus (GC 3051) ([1]; strain GC 3051): 4 mg/L (≈ 2.79 µM) | MIC Staphylococcus aureus (GC 3053) ([1]; strain GC 3053): 4 mg/L (≈ 2.79 µM) | MIC Staphylococcus aureus (GC 4541) ([1]; strain GC 4541): 8 mg/L (≈ 5.59 µM) | MIC Staphylococcus aureus (GC 4542) ([1]; strain GC 4542): 4 mg/L (≈ 2.79 µM) | MIC Staphylococcus aureus-SMITH (GC 4543) ([1]; strain GC 4543): 4 mg/L (≈ 2.79 µM) | MIC Staphylococcus aureus (GC 4544) ([1]; strain GC 4544): 8 mg/L (≈ 5.59 µM) | MIC Staphylococcus aureus (GC 4545) ([1]; strain GC 4545): 4 mg/L (≈ 2.79 µM) | MIC Staphylococcus haemolyticus (GC 4546) ([1]; strain GC 4546): 4 mg/L (≈ 2.79 µM) | MIC Coagulase Negative Staphylococcus (GC 4547) ([1]; strain GC 4547): 4 mg/L (≈ 2.79 µM) | MIC Coagulase Negative Staphylococcus (GC 4548) ([1]; strain GC 4548): 4 mg/L (≈ 2.79 µM) | MIC Coagulase Negative Staphylococcus (GC 4549) ([1]; strain GC 4549): 4 mg/L (≈ 2.79 µM) | MIC Coagulase Negative Staphylococcus (GC 4551) ([1]; strain GC 4551): 4 mg/L (≈ 2.79 µM) | MIC Coagulase Negative Staphylococcus (GC 6257) ([1]; strain GC 6257): 4 mg/L (≈ 2.79 µM) | MIC Enterococcus avium (GC 4558) [2]: 4 mg/L (≈ 2.79 µM) | MIC Enterococcus faecalis (ATCC 29212) [2]: 8 mg/L (≈ 5.59 µM) | MIC Enterococcus faecalis (GC 2242) [2]: 8 mg/L (≈ 5.59 µM) | MIC Enterococcus faecalis (GC 2691) [2]: 8 mg/L (≈ 5.59 µM) | MIC Enterococcus faecalis (GC 3059) [2]: 8 mg/L (≈ 5.59 µM) | MIC Enterococcus faecalis (GC 4552) [2]: 8 mg/L (≈ 5.59 µM) | MIC Enterococcus faecalis (GC 4553) [2]: 8 mg/L (≈ 5.59 µM) | MIC Enterococcus faecalis (GC 4554) [2]: 8 mg/L (≈ 5.59 µM) | MIC Enterococcus faecalis (GC 6189) [2]: 8 mg/L (≈ 5.59 µM) | MIC Enterococcus faecium (GC 2243) [2]: 8 mg/L (≈ 5.59 µM) | MIC Enterococcus faecium (GC 4556) [2]: 8 mg/L (≈ 5.59 µM) | MIC Enterococcus faecium (GC 4557) [2]: 8 mg/L (≈ 5.59 µM) | MIC Enterococcus faecalis (ATCC 29212) ([2]; inoculum 5×10^5 CFU/mL, strain ATCC 29212): 8 mg/L (≈ 5.59 µM) | MIC Enterococcus faecalis (GC 2242) ([2]; inoculum 5×10^5 CFU/mL, strain GC 2242): 8 mg/L (≈ 5.59 µM) | MIC Enterococcus faecium (GC 2243) ([2]; inoculum 5×10^5 CFU/mL, strain GC 2243): 8 mg/L (≈ 5.59 µM) | MIC Enterococcus faecalis (GC 2691) ([2]; inoculum 5×10^5 CFU/mL, strain GC 2691): 8 mg/L (≈ 5.59 µM) | MIC Enterococcus faecalis (GC 3059) ([2]; inoculum 5×10^5 CFU/mL, strain GC 3059): 8 mg/L (≈ 5.59 µM) | MIC Enterococcus faecalis (GC 4552) ([2]; inoculum 5×10^5 CFU/mL, strain GC 4552): 8 mg/L (≈ 5.59 µM) | MIC Enterococcus faecalis (GC 4553) ([2]; inoculum 5×10^5 CFU/mL, strain GC 4553): 8 mg/L (≈ 5.59 µM) | MIC Enterococcus faecalis (GC 4554) ([2]; inoculum 5×10^5 CFU/mL, strain GC 4554): 8 mg/L (≈ 5.59 µM) | MIC Enterococcus faecium (GC 4556) ([2]; inoculum 5×10^5 CFU/mL, strain GC 4556): 8 mg/L (≈ 5.59 µM) | MIC Enterococcus faecium (GC 4557) ([2]; inoculum 5×10^5 CFU/mL, strain GC 4557): 8 mg/L (≈ 5.59 µM) | MIC Enterococcus avium (GC 4558) ([2]; inoculum 5×10^5 CFU/mL, strain GC 4558): 4 mg/L (≈ 2.79 µM) | MIC Enterococcus faecalis (GC 6189) ([2]; inoculum 5×10^5 CFU/mL, strain GC 6189): 8 mg/L (≈ 5.59 µM) | MIC Streptococcus agalactiae (GC 4564) [3]: 0.12 mg/L (≈ 0.0838 µM) | MIC Streptococcus pneumoniae (ATCC 6301) [3]: <0.06 mg/L | MIC Streptococcus pneumoniae (GC 1894) [3]: <0.06 mg/L | MIC Streptococcus pneumoniae (GC 4565) [3]: <0.06 mg/L | MIC Streptococcus pyogenes (GC 4563) [3]: 0.12 mg/L (≈ 0.0838 µM) | MIC Streptococcus pneumoniae (ATCC 6301) ([3]; inoculum 5×10^5 CFU/mL, strain ATCC 6301): <0.06 mg/L | MIC Streptococcus pneumoniae (GC 1894) ([3]; inoculum 5×10^5 CFU/mL, strain GC 1894): <0.06 mg/L | MIC Streptococcus pyogenes (GC 4563) ([3]; inoculum 5×10^5 CFU/mL, strain GC 4563): 0.12 mg/L (≈ 0.0838 µM) | MIC Streptococcus agalactiae (GC 4564) ([3]; inoculum 5×10^5 CFU/mL, strain GC 4564): 0.12 mg/L (≈ 0.0838 µM) | MIC Streptococcus pneumoniae (GC 4565) ([3]; inoculum 5×10^5 CFU/mL, strain GC 4565): <0.06 mg/L | MIC Escherichia coli (ATCC 25922) [4]: 64 mg/L (≈ 44.7 µM) | MIC Escherichia coli (GC 4559) [4]: >64 mg/L | MIC Escherichia coli (GC 4560) [4]: 8 mg/L (≈ 5.59 µM)

— patent US6914045B2, “Glycopeptide antibiotics” (Wyeth Holdings Corporation, priority 2001, dated 2005)
